For 24 compounds, IC50 results are on record in US9150566B2, “2-(1,2,3-triazol-2-yl)benzamide and 3-(1,2,3-triazol-2-YL)picolinamide derivatives as orexin receptor antagonists” (ACTELION PHARMACEUTICALS LTD., priority 2011, dated 2015).

The target of one data set is human orexin-1 receptor (Homo sapiens (Human), UniProt O43613). Put plainly: In vitro intracellular calcium measurements (FLIPR), antagonistic activity on orexin-1 receptor. Format: cell-based. Particulars: CHO cells expressing human orexin-1 receptor; FLIPR; 3 nM orexin-A agonist; 120 min antagonist incubation; geometric mean if determined several times; read-out: IC50 OX1. The method in brief: (§1)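 CHO cells expressing human orexin-1 or orexin-2 receptor were seeded overnight, preincubated with antagonist for 120 min, then stimulated with agonist in a FLIPR Tetra.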

A further data set concerns the target CYP3A4 (Homo sapiens (Human), UniProt P08684). Put plainly: CYP3A4 inhibition assay (human liver microsomes, testosterone 6β-hydroxylation). To be noted: read-out: CYP3A4 IC50, 40 μM testosterone. Background: Microsomes from liver hold many membrane-bound enzymes, among them those of drug oxidation.
In a further data set the target is human orexin-2 receptor (Homo sapiens (Human), UniProt O43614). Put plainly: In vitro intracellular calcium measurements (FLIPR), antagonistic activity on orexin-2 receptor. The class given is cell-based. To be noted: CHO cells expressing human orexin-2 receptor; FLIPR; 3 nM orexin-A agonist; 120 min antagonist incubation; geometric mean if determined several times; read-out: IC50 OX2. In short, it runs like this: as §1
A general note: A change in cytosolic calcium serves as a functional read-out for many receptors and channels.

The structures appear in SMILES notation.

Sequence of human orexin-1 receptor (O43613 whole entry): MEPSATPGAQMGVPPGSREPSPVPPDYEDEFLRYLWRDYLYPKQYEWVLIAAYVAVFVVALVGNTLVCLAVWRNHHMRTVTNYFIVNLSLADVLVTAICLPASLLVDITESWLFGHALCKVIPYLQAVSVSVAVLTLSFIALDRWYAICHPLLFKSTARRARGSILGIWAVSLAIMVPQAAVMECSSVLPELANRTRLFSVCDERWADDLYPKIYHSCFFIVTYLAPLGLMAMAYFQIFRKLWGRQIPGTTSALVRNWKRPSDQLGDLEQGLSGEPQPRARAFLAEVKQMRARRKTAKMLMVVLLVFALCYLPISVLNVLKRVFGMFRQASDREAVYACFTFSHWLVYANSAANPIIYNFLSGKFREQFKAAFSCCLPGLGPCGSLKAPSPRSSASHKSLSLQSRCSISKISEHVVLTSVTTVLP
Sequence of human orexin-2 receptor (O43614 whole entry): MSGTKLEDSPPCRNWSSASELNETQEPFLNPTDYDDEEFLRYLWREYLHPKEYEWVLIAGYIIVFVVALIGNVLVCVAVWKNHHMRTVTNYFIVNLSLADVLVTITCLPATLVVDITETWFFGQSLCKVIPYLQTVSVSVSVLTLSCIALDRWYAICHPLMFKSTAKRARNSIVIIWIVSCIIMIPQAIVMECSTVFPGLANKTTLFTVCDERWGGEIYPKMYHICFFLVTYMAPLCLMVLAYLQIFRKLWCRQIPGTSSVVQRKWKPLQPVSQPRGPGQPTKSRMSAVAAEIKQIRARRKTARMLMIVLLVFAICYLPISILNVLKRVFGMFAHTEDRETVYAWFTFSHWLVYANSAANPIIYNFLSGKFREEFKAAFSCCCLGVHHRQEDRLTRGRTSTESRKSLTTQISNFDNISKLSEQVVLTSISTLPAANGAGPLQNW
Sequence of CYP3A4 (P08684 whole entry): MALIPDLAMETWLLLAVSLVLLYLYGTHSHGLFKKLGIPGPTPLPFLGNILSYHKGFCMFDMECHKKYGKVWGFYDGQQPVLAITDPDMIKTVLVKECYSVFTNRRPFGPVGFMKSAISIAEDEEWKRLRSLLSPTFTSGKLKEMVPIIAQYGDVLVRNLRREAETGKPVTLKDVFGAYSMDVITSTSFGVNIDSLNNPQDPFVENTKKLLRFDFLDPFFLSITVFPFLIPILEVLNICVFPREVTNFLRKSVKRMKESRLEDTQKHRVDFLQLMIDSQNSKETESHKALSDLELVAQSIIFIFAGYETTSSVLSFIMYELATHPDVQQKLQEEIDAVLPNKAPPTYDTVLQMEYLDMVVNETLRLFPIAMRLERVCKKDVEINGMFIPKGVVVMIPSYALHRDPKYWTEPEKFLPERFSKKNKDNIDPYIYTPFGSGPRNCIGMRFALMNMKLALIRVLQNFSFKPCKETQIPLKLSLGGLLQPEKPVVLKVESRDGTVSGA

With `O=C(c1ccc(Cl)cc1-n1nccn1)N1CCOC[C@H]1Cc1cc(-c2ncon2)ccc1F` [Example 178, (4-Chloro-2-[1,2,3]triazol-2-yl-phenyl)-[(R)-3-(2-fluoro-5-[1,2,4]oxadiazol-3-yl-benzyl)-morpholin-4-yl]-methanone], the figures for the IC50 at human orexin-1 receptor, at CYP3A4 and at human orexin-2 receptor were 2 nM, 24000 nM and 165 nM, respectively.

Turning to `Cc1cccc(C(=O)N2C[C@@H](C)OC[C@H]2Cc2cc(-c3ncccn3)ccc2F)c1-n1nccn1` [Example 150, [(2R,5R)-5-(2-Fluoro-5-pyrimidin-2-yl-benzyl)-2-methyl-morpholin-4-yl]-(3-methyl-2-[1,2,3]triazol-2-yl-phenyl)-methanone], the figures for the IC50 at human orexin-1 receptor, on CYP3A4 and on human orexin-2 receptor were 9 nM, 32000 nM and 506 nM, respectively.

As to `Cc1ccc(-n2nccn2)cc1C[C@@H]1COCCN1C(=O)c1cccc(C)c1-n1nccn1` [Example 124, [(R)-3-(2-Methyl-5-[1,2,3]triazol-2-yl-benzyl)-morpholin-4-yl]-(3-methyl-2-[1,2,3]triazol-2-yl-phenyl)-methanone], the IC50 – broadly, the concentration needed to halve the response being measured – at human orexin-1 receptor is 9 nM; on CYP3A4, 22000 nM; on human orexin-2 receptor it was 997 nM.

With `COc1ccc(C[C@@H]2COCCN2C(=O)c2ccccc2-n2nccn2)cc1-c1nccs1` [Example 8, [(R)-3-(4-Methoxy-3-thiazol-2-yl-benzyl)-morpholin-4-yl]-(2-[1,2,3]triazol-2-yl-phenyl)-methanone], the IC50 on human orexin-1 receptor stood at 1 nM; at CYP3A4, 3200 nM; at human orexin-2 receptor it was 335 nM.

Turning to `Cc1cc(C(=O)N2CCOC[C@H]2Cc2cccc(-c3ncon3)c2)c(-n2nccn2)cc1C` [Example 85, (4,5-Dimethyl-2-[1,2,3]triazol-2-yl-phenyl)-[(R)-3-(3-[1,2,4]oxadiazol-3-yl-benzyl)-morpholin-4-yl]-methanone], the IC50 at human orexin-1 receptor was 1 nM; at CYP3A4 it was 25000 nM; on human orexin-2 receptor, 21 nM.

Turning to `O=C(c1cccc(Cl)c1-n1nccn1)N1CCOC[C@H]1Cc1cc(-n2nccn2)ccc1Cl` [Example 171, [(R)-3-(2-Chloro-5-[1,2,3]triazol-2-yl-benzyl)-morpholin-4-yl]-(3-chloro-2-[1,2,3]triazol-2-yl-phenyl)-methanone], the half-inhibitory concentration (IC50) worked out at 10 nM at human orexin-1 receptor, 13000 nM at CYP3A4 and 675 nM on human orexin-2 receptor.

As for `Cc1cc(C(=O)N2CCOC[C@H]2Cc2cc(-c3ncon3)ccc2F)c(-n2nccn2)cc1C` [Example 179, (4,5-Dimethyl-2-[1,2,3]triazol-2-yl-phenyl)-[(R)-3-(2-fluoro-5-[1,2,4]oxadiazol-3-yl-benzyl)-morpholin-4-yl]-methanone], the IC50 at human orexin-1 receptor amounted to 2 nM; on CYP3A4, 29000 nM; on human orexin-2 receptor, 34 nM.

For the compound `Cc1cc(C)c(-n2nccn2)c(C(=O)N2CCOC[C@H]2Cc2cccc(-n3nccn3)c2)c1` [Example 75, (3,5-Dimethyl-2-[1,2,3]triazol-2-yl-phenyl)-[(R)-3-(3-[1,2,3]triazol-2-yl-benzyl)-morpholin-4-yl]-methanone], the results for the IC50 at human orexin-1 receptor, at CYP3A4 and at human orexin-2 receptor were 3 nM, 15000 nM and 547 nM, respectively.

As to `COc1cc(C(=O)N2CCOC[C@H]2Cc2cccc(-n3nccn3)c2)c(-n2nccn2)cc1F` [Example 78, (4-Fluoro-5-methoxy-2-[1,2,3]triazol-2-yl-phenyl)-[(R)-3-(3-[1,2,3]triazol-2-yl-benzyl)-morpholin-4-yl]-methanone], the IC50 is 17 nM at human orexin-1 receptor, 22000 nM at CYP3A4 and 528 nM on human orexin-2 receptor.

On to `COc1cc(C(=O)N2CCOC[C@H]2Cc2cc(-n3nccn3)ccc2F)c(-n2nccn2)cc1Cl` [Example 139, (4-Chloro-5-methoxy-2-[1,2,3]triazol-2-yl-phenyl)-[(R)-3-(2-fluoro-5-[1,2,3]triazol-2-yl-benzyl)-morpholin-4-yl]-methanone], for which the values for the IC50 on human orexin-1 receptor, on CYP3A4 and at human orexin-2 receptor were 10 nM, 13000 nM and 191 nM, respectively.

As for `COc1cc(C(=O)N2CCOC[C@H]2Cc2cc(-n3nccn3)ccc2F)c(-n2nccn2)cc1C` [Example 134, [(R)-3-(2-Fluoro-5-[1,2,3]triazol-2-yl-benzyl)-morpholin-4-yl]-(5-methoxy-4-methyl-2-[1,2,3]triazol-2-yl-phenyl)-methanone], the IC50 at human orexin-1 receptor stood at 11 nM; at CYP3A4, 19000 nM; at human orexin-2 receptor it was 336 nM.

As to `Cc1ccc(-n2nccn2)c(C(=O)N2CCOC[C@H]2Cc2cc(-n3nccn3)ccc2Cl)c1` [Example 125, [(R)-3-(2-Chloro-5-[1,2,3]triazol-2-yl-benzyl)-morpholin-4-yl]-(5-methyl-2-[1,2,3]triazol-2-yl-phenyl)-methanone], the IC50 on human orexin-1 receptor amounted to 7 nM; at CYP3A4, 22000 nM; at human orexin-2 receptor, 626 nM.

Turning to `C[C@@H]1CN(C(=O)c2cc(Cl)ccc2-n2nccn2)[C@H](Cc2cc(-n3nccn3)ccc2F)CO1` [Example 186, (5-Chloro-2-[1,2,3]triazol-2-yl-phenyl)-[(2R,5R)-5-(2-fluoro-5-[1,2,3]triazol-2-yl-benzyl)-2-methyl-morpholin-4-yl]-methanone], the concentration for half-maximal inhibition (IC50) at human orexin-1 receptor is 11 nM; on CYP3A4, 19000 nM; at human orexin-2 receptor, 181 nM.

Regarding `Cc1ccc(-n2nccn2)c(C(=O)N2CCOC[C@H]2Cc2cccc(-n3cccn3)c2)c1` [Example 19, (5-Methyl-2-[1,2,3]triazol-2-yl-phenyl)-[(R)-3-(3-pyrazol-1-yl-benzyl)-morpholin-4-yl]-methanone], the IC50 came to 2 nM on human orexin-1 receptor, 32000 nM at CYP3A4 and 369 nM on human orexin-2 receptor.

`Cc1ccc(C[C@@H]2COCCN2C(=O)c2ccccc2-n2nccn2)cc1-c1ncccn1` [Example 192, [(R)-3-(4-Methyl-3-pyrimidin-2-yl-benzyl)-morpholin-4-yl]-(2-[1,2,3]triazol-2-yl-phenyl)-methanone]: the IC50 is 16 nM on human orexin-1 receptor, greater than 50000 nM at CYP3A4 and 2610 nM at human orexin-2 receptor.

On to `Cc1ccc(-n2nccn2)c(C(=O)N2CCOC[C@H]2Cc2cccc(-c3ccncc3)c2)c1` [Example 28, (5-Methyl-2-[1,2,3]triazol-2-yl-phenyl)-[(R)-3-(3-pyridin-4-yl-benzyl)-morpholin-4-yl]-methanone], for which the results for the IC50 on human orexin-1 receptor, at CYP3A4 and on human orexin-2 receptor were 43 nM, 300 nM and 2110 nM, respectively.

In the case of `C[C@@H]1CN(C(=O)c2cccc(Cl)c2-n2nccn2)[C@H](Cc2cc(-c3ncccn3)ccc2F)CO1` [Example 154, (3-Chloro-2-[1,2,3]triazol-2-yl-phenyl)-[(2R,5R)-5-(2-fluoro-5-pyrimidin-2-yl-benzyl)-2-methyl-morpholin-4-yl]-methanone], the IC50 came out at 13 nM on human orexin-1 receptor, 24000 nM on CYP3A4 and 447 nM at human orexin-2 receptor.

Consider `C[C@@H]1CN(C(=O)c2ccc(Cl)cc2-n2nccn2)[C@H](Cc2cccc(-c3ncccn3)c2)CO1` [Example 114, (4-Chloro-2-[1,2,3]triazol-2-yl-phenyl)-[(2R,5R)-2-methyl-5-(3-pyrimidin-2-yl-benzyl)-morpholin-4-yl]-methanone], for which the IC50 on human orexin-1 receptor was 1 nM; on CYP3A4, 35000 nM; at human orexin-2 receptor, 83 nM.

On to `COc1ccc(C[C@@H]2COCCN2C(=O)c2ccccc2-n2nccn2)cc1-c1ncco1` [Example 9, [(R)-3-(4-Methoxy-3-oxazol-2-yl-benzyl)-morpholin-4-yl]-(2-[1,2,3]triazol-2-yl-phenyl)-methanone], for which the figures for the IC50 on human orexin-1 receptor, at CYP3A4 and on human orexin-2 receptor were 2 nM, 8400 nM and 468 nM, respectively.

Turning to `Cc1ccc(-n2nccn2)c(C(=O)N2CCOC[C@H]2Cc2cccc(-c3ncon3)c2)c1` [Example 2, (5-Methyl-2-[1,2,3]triazol-2-yl-phenyl)-[(R)-3-(3-[1,2,4]oxadiazol-3-yl-benzyl)-morpholin-4-yl]-methanone], the results for the IC50 at human orexin-1 receptor, at CYP3A4 and at human orexin-2 receptor were 7 nM, 43000 nM and 406 nM, respectively.

Consider `COc1ccc(-n2nccn2)c(C(=O)N2CCOC[C@H]2Cc2cccc(-n3nccn3)c2)c1F` [Example 33, (2-Fluoro-3-methoxy-6-[1,2,3]triazol-2-yl-phenyl)-[(R)-3-(3-[1,2,3]triazol-2-yl-benzyl)-morpholin-4-yl]-methanone], for which the IC50 was 14 nM at human orexin-1 receptor, greater than 50000 nM on CYP3A4 and 1200 nM at human orexin-2 receptor.

As for `COc1ccc(C[C@@H]2COCCN2C(=O)c2ccc(C)cc2-n2nccn2)cc1-c1ncon1` [Example 60, [(R)-3-(4-Methoxy-3-[1,2,4]oxadiazol-3-yl-benzyl)-morpholin-4-yl]-(4-methyl-2-[1,2,3]triazol-2-yl-phenyl)-methanone], the results for the IC50 on human orexin-1 receptor, on CYP3A4 and at human orexin-2 receptor were 0.7 nM, 41000 nM and 34 nM, respectively.

As for `C[C@@H]1CN(C(=O)c2cccc(Cl)c2-n2nccn2)[C@H](Cc2cc(-n3nccn3)ccc2F)CO1` [Example 173, (3-Chloro-2-[1,2,3]triazol-2-yl-phenyl)-[(2R,5R)-5-(2-fluoro-5-[1,2,3]triazol-2-yl-benzyl)-2-methyl-morpholin-4-yl]-methanone], the concentration for half-maximal inhibition (IC50) stood at 16 nM on human orexin-1 receptor, 21000 nM on CYP3A4 and 455 nM at human orexin-2 receptor.

Consider `O=C(c1ccccc1-n1nccn1)N1CCOC[C@H]1Cc1cccc(-c2nccs2)c1` [Example 44, [(R)-3-(3-Thiazol-2-yl-benzyl)-morpholin-4-yl]-(2-[1,2,3]triazol-2-yl-phenyl)-methanone], for which the results for the IC50 at human orexin-1 receptor, on CYP3A4 and at human orexin-2 receptor were 2 nM, 2000 nM and 457 nM, respectively.
